Legend:
[1] = molecular target: T1, rat mGlu7 (Rattus norvegicus, UniProt P35400); test: Thallium flux assay, mGlu7/GIRK HEK293 cells cocultured with pcDNA3 vector control cells; format: cell-based; conditions: L-AP4 pEC50 ± SEM, pcDNA, DMSO vehicle
T1 construct: expressed in transfected cells; host or cells: HEK293A cells stably expressing mGlu7 and GIRK1/2
From the text: (§1) We began our evaluation of mGlu7 ligands in the presence and absence of Elfn1 by using a coculture system as previously described , with several modifications (Figure ). Cells expressing rat mGlu7 and coexpressing G protein inwardly rectifying potassium (GIRK) channels 1 and 2 were cocultured with cells expressing either an empty pcDNA3 vector control or a plasmid containing Elfn1 in the pcDNA3 backbone. We then evaluated the activity of the orthosteric agonist L-AP4 and measured effects on maximal response and pEC50. All responses were normalized to the maximal effect of L-AP4 in the presence of the pcDNA3 control plasmid.
(§2) 2 Assay design and workflow. (Left panel) Cells expressing rat mGlu7/GIRK (pink) were cocultured with pcDNA3 (blue) or Elfn1 (purple). […] (Right panel) The effect on the concentration–response curve in the presence (purple) or absence (blue) of Elfn1 can be seen by a change in efficacy, potency, and/or basal response.
(§3) HEK293A cells stably expressing mouse Elfn1 or pcDNA3 were maintained in growth medium containing 90% Dulbecco’s Modified Eagle Media (DMEM), 10% fetal bovine serum (FBS), 100 units/mL penicillin/streptomycin, 20 mM HEPES, 1 mM sodium pyruvate, 2 mM L-glutamine, 1× nonessential amino acids, and 700 μg/mL G418 sulfate. HEK mGlu7/GIRK cells were maintained in a growth medium with 90% DMEM/F12, 10% dialyzed FBS, 100 units/mL penicillin/streptomycin, 20 mM HEPES, 1 mM sodium pyruvate, 2 mM L-glutamine, 1× nonessential amino acids, 700 μg/mL G418 sulfate, and 600 ng/mL puromycin. All cell culture reagents were purchased from Invitrogen (Carlsbad, CA).
(§4) Thallium flux assays were performed as previously described. A mixture of HEK293A mGlu7/GIRK cells and pcDNA3 or Elfn1-expressing HEK293A cells (5000/15,000 cells/20 μL/well for agonist and PAM experiments; 7500/15,000 cells/20 μL/well for NAM experiments) was seeded in 384-well, amine-coated assay plates (Greiner Bio-One, Monroe, NC). Cells were incubated overnight in a humidified 5% CO2 cell culture incubator at 37 °C. […] Following a 1 h incubation at room temperature, the dye loading solution was replaced with 20 μL/well assay buffer and the plates were loaded into a Hamamatsu FDSS 7000 (Bridgewater, NJ). […] Thallium flux data were analyzed by first dividing each point in each wave by the first point in that wave and then subtracting the average of the vehicle control response. The slopes of these vehicle control-subtracted waves were calculated over ten data points beginning 2 s after thallium stimulus addition and fit to a three-parameter logistic equation in GraphPad Prism (La Jolla, CA). In most cases, the final data were normalized to the response of the mGlu7/pcDNA3 with vehicle and 5 mM L-AP4 unless otherwise noted. Potency (pEC50) and maximum responses (E max) induced by compounds were determined using a four-parameter logistical equation in Prism. Basal activity was calculated with data points at the three lowest test concentrations. Maximum activity was calculated with data points at two highest concentrations. All experiments were replicated at least three times in duplicate or triplicate.

[2] = molecular target: T2, mGlu7/Elfn1 (Rattus norvegicus, UniProt P35400); test: Thallium flux assay, mGlu7/GIRK HEK293 cells cocultured with Elfn1-expressing cells; format: cell-based, mouse Elfn1; conditions: for EC50: L-AP4 pEC50 ± SEM, Elfn1, DMSO vehicle
T2 construct: expressed in transfected cells; host or cells: HEK293A mGlu7/GIRK cells cocultured with HEK293A polyclonal cells stably expressing Elfn1-Myc (pcDNA3)
From the text: as §1, §2
HEK293A polyclonal cells stably expressing either Elfn1 or empty vector were passaged in media (Dulbecco’s modified Eagle medium (DMEM), supplemented with 10% fetal bovine serum (FBS), 20 mM N-(2-hydroxyethyl)-piperazine-N′-ethanesulfonic acid (HEPES), 1 mM Na pyruvate, 2 mM Glutamax, 0.1 mM nonessential amino acids, 1× antibiotic/antimycotic) under G418 (700 μg/mL) selection to maintain expression.
as §3
as §4, with “NJ). Data were acquired at 1 Hz (excitation 470 ± 20 nm, emission 540 ± 30 nm) for 10 s, followed by the addition of 20 μL/well of 10 μM NAM/PAM/DMSO, followed by an additional 4 min of data collection.” for “NJ).”, “Prism.” for “Prism. Basal activity was calculated with data points at the three lowest test concentrations. Maximum activity was calculated with data points at two highest concentrations. All experiments were replicated at least three times in duplicate or triplicate.”

[3] = agonist alone (DMSO row of Table 2)
[4] = agonist alone (DMSO row of Table S1)

T2 sequence (P35400 35-915): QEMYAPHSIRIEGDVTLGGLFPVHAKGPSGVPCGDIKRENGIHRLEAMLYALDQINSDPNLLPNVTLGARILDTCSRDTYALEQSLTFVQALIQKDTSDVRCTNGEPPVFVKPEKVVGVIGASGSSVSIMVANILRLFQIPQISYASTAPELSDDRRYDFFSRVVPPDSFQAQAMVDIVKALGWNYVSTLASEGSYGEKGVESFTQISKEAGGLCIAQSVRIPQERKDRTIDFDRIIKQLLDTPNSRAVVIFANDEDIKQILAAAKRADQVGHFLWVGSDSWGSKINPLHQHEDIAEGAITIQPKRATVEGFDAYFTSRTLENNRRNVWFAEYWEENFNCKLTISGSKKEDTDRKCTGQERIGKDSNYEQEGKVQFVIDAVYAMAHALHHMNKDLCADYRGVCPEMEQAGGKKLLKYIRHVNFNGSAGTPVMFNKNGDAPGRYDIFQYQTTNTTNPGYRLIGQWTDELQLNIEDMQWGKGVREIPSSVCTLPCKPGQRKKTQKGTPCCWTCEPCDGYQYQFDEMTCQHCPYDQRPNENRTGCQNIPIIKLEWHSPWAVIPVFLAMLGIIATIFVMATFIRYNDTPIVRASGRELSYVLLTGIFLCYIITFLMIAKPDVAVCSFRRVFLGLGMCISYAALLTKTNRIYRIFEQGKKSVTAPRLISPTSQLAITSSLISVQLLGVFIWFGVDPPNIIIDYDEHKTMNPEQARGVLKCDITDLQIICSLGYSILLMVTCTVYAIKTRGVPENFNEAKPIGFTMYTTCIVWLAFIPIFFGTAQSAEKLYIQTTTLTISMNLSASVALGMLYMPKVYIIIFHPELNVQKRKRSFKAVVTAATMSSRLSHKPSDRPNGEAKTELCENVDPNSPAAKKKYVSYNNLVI
T2 sequence (Q8C8T7 26-828 partner): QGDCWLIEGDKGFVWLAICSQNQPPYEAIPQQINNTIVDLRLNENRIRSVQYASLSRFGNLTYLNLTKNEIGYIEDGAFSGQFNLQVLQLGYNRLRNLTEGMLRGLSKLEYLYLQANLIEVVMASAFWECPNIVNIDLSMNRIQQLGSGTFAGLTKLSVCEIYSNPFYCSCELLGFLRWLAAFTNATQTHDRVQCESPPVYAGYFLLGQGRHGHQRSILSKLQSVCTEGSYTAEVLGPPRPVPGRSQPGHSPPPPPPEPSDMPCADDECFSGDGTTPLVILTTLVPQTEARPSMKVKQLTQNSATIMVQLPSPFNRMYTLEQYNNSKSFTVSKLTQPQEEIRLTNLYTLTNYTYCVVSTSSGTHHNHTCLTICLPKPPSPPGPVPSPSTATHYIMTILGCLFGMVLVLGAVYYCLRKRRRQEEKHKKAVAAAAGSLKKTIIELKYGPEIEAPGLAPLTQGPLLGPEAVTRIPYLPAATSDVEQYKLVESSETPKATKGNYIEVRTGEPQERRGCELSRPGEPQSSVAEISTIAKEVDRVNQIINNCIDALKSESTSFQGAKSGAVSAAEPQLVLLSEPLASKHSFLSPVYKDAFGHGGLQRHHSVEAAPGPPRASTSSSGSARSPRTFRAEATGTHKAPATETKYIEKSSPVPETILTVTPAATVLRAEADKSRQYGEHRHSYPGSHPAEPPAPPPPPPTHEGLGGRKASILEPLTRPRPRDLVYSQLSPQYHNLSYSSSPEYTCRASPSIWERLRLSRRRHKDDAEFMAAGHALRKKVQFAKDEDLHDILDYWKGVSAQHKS
T1 sequence (P35400 35-915): as the sequence (P35400 35-915) above

Compound: N[C@@H](CCP(=O)(O)O)C(=O)O [L-AP4, L-2-amino-4-phosphonobutyric acid, reference compound]
- EC50 [1, 3]: 195 µM
- EC50 [1, 4]: 240 µM
- EC50 [2, 3]: 324 µM
- EC50 [2, 4]: 200 µM
- maximal response to L-AP4 with Elfn1 versus pcDNA3 ([2]; eight experiments, p < 0.001): significantly reduced
- pEC50 of L-AP4 with Elfn1 versus pcDNA3 ([2]; eight experiments, p < 0.01): significantly reduced
